Legend:
[1] = system: genes associated with erythropoiesis; experiment: RNA-sequencing of spleen and PBMC's of treated mice; assay type: in vivo; conditions: for transcriptional signatures of erythropoiesis: day 7 after rhGAA initiation, rhGAA in conjunction with low-dose methotrexate
Procedure: Animals were sacrificed on day 7 after rhGAA initiation. Blood was collected by terminal retro-orbital bleeds as described above. Whole blood diluted 1 part in 2 with PBS was layered over Ficoll for the separation of peripheral blood mononuclear cells (PBMC's). Spleens were prepared into single-cell suspension between glass slides. Samples were treated for RBC lysis (BD Pharm Lyse). […] The RNA integrity number (RIN) was evaluated. on an Agilent 2100 bioanalyzer with the RNA 6000 nano kit (Agilent) or RNA 6000 pica kit (Agilent). RNA amplification was performed with the SMARTER™ PCR cDNA Synthesis Kit (Clonetech). Detection of sequencing fragments was performed on the Illumina HiSeq2000 with Illumina sequencing kits. RNA-seq data sets were filtered to remove adaptors and low-quality, reads and assessed for differential expression with a fold change of 2 and p value≤0.05. Differentially expressed genes were annotated and examined through NextBio biological data mining software (Illumina).

[2] = system: erythroid ankyrin and glycophorin C; experiment: Tissue mass spectrometry imaging (tMSI) of spleen; assay type: in vivo, mice; conditions: 7 days after rhGAA initiation, methotrexate given together with rhGAA or FB
Procedure: Fresh spleen samples for tMSI were collected in 10% gelatin (Alfa Aesar catalog J62699), frozen en bloc, cut into […] sections, and deposited on indium tin oxide ([…]) glass slides. ITO glass slides were coated with matrix-assisted laser desorption/ionization (MALDI) matrix (α-cyano-4-hydroxycinnamic acid) for tMSI. Mass spectrometry imaging was performed with AB Sciex 4800 MALDI-TOF/TOF, Autoflex MALDI-TOF/TOF and 7T SolariX MALDI-FTICR mass spectrometers. The imaging data sets were analyzed with TissueView, flexlmaging, or Multimaging 1.1 (ImaBiotech).

[3] = system: proteins of erythropoiesis related pathways (transferrin receptor 1, transferrin); experiment: LC/MS protein mass spectrometry of spleen of treated mice; assay type: in vivo; conditions: day 7, rhGAA with vs without transient low-dose methotrexate
Procedure: (§1) C57BL/6 (Jackson Laboratory) or C57BL/6NTac (Taconic Biosciences, Inc.) female mice between S and 12 weeks of age were housed and maintained in accordance with the Guide for the Care and Use of Laboratory Animals, under the American Association for Accreditation of Laboratory Animal Care. The Institutional Animal Care and Use Committee approved all animal procedures. […] Subsequent weekly doses of rhGAA (up to 16 weeks) were given 15 minutes after prophylactic intraperitoneal administration of 30 mg/kg diphenhydramine (West-ward Pharmaceutical). The vehicle control or formulation buffer (FB) for rhGAA. was administered similarly to reconstituted rhGAA. Blood was collected by retro-orbital Heeds from anesthetized mice or by terminal bleeds into EDTA anticoagulant Capiject micro collection tubes (Terumo) on wet ice. […]
Blood was collected by terminal retro-orbital bleeds as described above followed by separation of plasma and PBC by centrifugation. […] Data was analyzed by Progenesis QI for Proteomics (Nonlinear Dynamics) for peak detection. […] Protein quantitation was performed through Progenesis QI for Proteomics. Fold change and p-values were calculated from the average normalized protein abundance data for each experimental group. […] Data were analyzed for enrichment scores in GO processes and other biological categories in MetaCore (Thomson Reuters).

[4] = system: anti-rhGAA IgG antibody; conditions: historical data; rhGAA with transient low-dose methotrexate ITI regimen vs rhGAA alone; cited from earlier work
[5] = system: total RBCs (Ter-119+) and immature, nucleated RBCs (Ter-119+CD71+); experiment: Flow cytometry of erythroid cells in spleen; assay type: in vivo, mice
Procedure: (§2) C57BL/6 (Jackson Laboratory) or C57BL/6NTac (Taconic Biosciences, Inc.) female mice between S and 12 weeks of age were housed and maintained in accordance with the Guide for the Care and Use of Laboratory Animals, under the American Association for Accreditation of Laboratory Animal Care. The Institutional Animal Care and Use Committee approved all animal procedures. […] Subsequent weekly doses of rhGAA (up to 16 weeks) were given 15 minutes after prophylactic intraperitoneal administration of 30 mg/kg diphenhydramine (West-ward Pharmaceutical). The vehicle control or formulation buffer (FB) for rhGAA. was administered similarly to reconstituted rhGAA. Blood was collected by retro-orbital Heeds from anesthetized mice or by terminal bleeds into EDTA anticoagulant Capiject micro collection tubes (Terumo) on wet ice. Spleens were prepared into single-cell suspension between glass slides with or without RBC lysis. Bone marrow was collected from a single femur on wet ice.
(§3) Anti-mouse antibodies used for flow cytometry include BioLegend antibodies PE-Ter-119 (catalog 116208), PerCP-Cy5.5-CD71 (catalog 113816), PE-Cy7-IgM (catalog 406516), Pacific Blue (PB)-CD86 (catalog 105022) and allophycocyanin-CD45 (catalog 103116). Antibodies from BD Biosciences include FITC-CD44 (catalog 553133), allophycocyanin-CD3 (catalog 550035), allophycocyanin-CD19 or allophycocyanin-Cy7-CD19 (catalog 557655 and 550992), FITC-CD1d (catalog 553843), FITC-CD23 (catalog 553138) and allophycocyanin-Cy7-CD3, (catalog 557596). Live/dead discrimination was determined by staining with BioLegend Zombie Aqua Fixable Visability Kit. Samples were run on a BD FACS Canto II (BD Biosciences) and acquired with BD FACSDiva software. Cytometry data was analyzed on Floyd( )software version 10 (FlowJo, LLC). Absolute numbers of cell population were calculated from CountBright Absolute Counting Beads (ThermoFisher Scientific). Cell types assessed include total RBCs (Ter-119^+), immature, nucleated RBCs (Ter-119^+, CD71^+), mature RBCs (Ter-119^+, […]), proerythrohlasts (Ter-119^intermediate, CD44^high), basophilic erythroblasts (Ter-119^+, CD44^highFSC^high), polychromatic erythroblasts (Ter-119^+, CD44^intermediateFSC^intermediate), orthochromatic erythroblasts and reticulocytes (Ter-119^+, CD44^intermediateFSC^low), mature red blood cells (Ter-119^+, CD44^lowFSC^low), total activated B cells (CD19^+CD86^+), activated follicular B cells (CD19^+, IgM^low/high CD23^+, CD86^+), activated marginal zone B cells (CD19^+, IgM^high CD23^−, CD86^+), and B10 regulatory B cells (CD19^+, CD1d^highCD5^+) (Allman et. al., 2004: Chen et. al., 2009; Koulnis et. al., 2011; Joly et. al., 2014).

[6] = system: total RBCs (Ter-119+) and immature, nucleated RBCs (Ter-119+CD71+); experiment: Flow cytometry of erythroid cells in blood; assay type: in vivo, mice
Procedure: as §2, §3

[7] = Hematology: CBC and reticulocyte count on Sysmex XT2000iV; assay type: in vivo, mice; conditions: blood; 7 days after rhGAA initiation; groups with transient low-dose methotrexate (rhGAA or FB)
Procedure: as §2
Samples were collected by retro-orbital bleed into EDTA anticoagulant Capiject micro collection tubes as described above and stored at 2-8° C. for no longer than 72 hours. CBC, WBC differential analysis and reticulocyte count were performed on Sysmex XT2000iV (Sysmex). Histology, immunohistochemistry (IHC)

[8] = Spleen weight and spleen cellularity; assay type: in vivo, mice; conditions: day 7; rhGAA concurrent with a single cycle of low-dose methotrexate vs rhGAA alone
Procedure: as §1
Anti-mouse antibodies used for flow cytometry include BioLegend antibodies PE-Ter-119 (catalog 116208), PerCP-Cy5.5-CD71 (catalog 113816), PE-Cy7-IgM (catalog 406516), Pacific Blue (PB)-CD86 (catalog 105022) and allophycocyanin-CD45 (catalog 103116). […] Live/dead discrimination was determined by staining with BioLegend Zombie Aqua Fixable Visability Kit. […] Cytometry data was analyzed on Floyd( )software version 10 (FlowJo, LLC). Absolute numbers of cell population were calculated from CountBright Absolute Counting Beads (ThermoFisher Scientific). […]

[9] = system: anti-rhGAA IgG antibody; experiment: Serum anti-rhGAA antibody titers by ELISA, dosed control mice; assay type: in vivo; conditions: high outlier not removed (data not shown)
Procedure: as §2
Quantitation of anti-rhGAA antibody titers from mouse serum was measured by ELBA as previously described (holy, Martin et. al. 2014). […] The reaction was stopped by addition of 1 N HCl and absorbance was immediately measured at 450/650 nm on a SpectraMax M2 (Molecular Devices). End-point titers were derived from the reciprocal of the sample dilution resulting in an absorbance value of 0.2.

[10] = system: total RBCs (Ter-119+) and immature, nucleated RBCs (Ter-119+CD71+); experiment: Flow cytometry of erythroid cells in bone marrow; assay type: in vivo, mice
Procedure: as §2, §3

[11] = day 2, CD44/FSC gating, with rhGAA vs rhGAA alone
[12] = day 2, with rhGAA vs rhGAA alone
[13] = day 7, CD44/FSC gating, with rhGAA vs rhGAA alone
[14] = day 7, with rhGAA vs rhGAA alone
[15] = day 9, with rhGAA vs rhGAA alone
[16] = day 4, with rhGAA vs rhGAA alone
[17] = day 4, CD44/FSC gating, with rhGAA vs rhGAA alone
[18] = day 5, with rhGAA vs rhGAA alone
[19] = day 7 and 9, with rhGAA vs rhGAA alone
[20] = day 9, CD44/FSC gating, with rhGAA vs rhGAA alone

CN(Cc1cnc2nc(N)nc(N)c2n1)c1ccc(C(=O)N[C@@H](CCC(=O)O)C(=O)O)cc1 [methotrexate]
transcriptional signatures of erythropoiesis ([1]; PBMC's): upregulation of transcriptional signatures of erythropoiesis | TfR1 in the transcriptional data set ([1]; day 7, rhGAA and low-dose methotrexate vs rhGAA alone): upregulation | transcriptional signatures of erythropoiesis ([1]; spleen): upregulation of transcriptional signatures of erythropoiesis | erythroid ankyrin signal in 10 μM spleen sections [2]: diminished | glycophorin C signal in 10 μM spleen sections [2]: diminished | transferrin protein level [3]: upregulation | transferrin receptor 1 protein level [3]: upregulation | rhGAA titers and AUC [4]: significantly reduced | day of peak enrichment of immature, nucleated RBCs [5]: 7 days | time to significant reduction in immature, nucleated RBCs and mature RBCs ([5]; after the first administration of low-dose methotrexate): ≤ 24 h | all stages of early erythroid cells (proerythroblasts, basophilic, polychromatic, orthochromatic erythroblasts and reticulocytes) [5, 11]: significantly diminished | mature RBCs [5, 11]: significantly reduced | immature, nucleated RBCs (Ter-119+CD71+) [5, 12]: nearly complete reduction | total erythroid cells (Ter-119+) [5, 12]: significant reduction | erythroid cells, difference between groups ([5]; day 6, with rhGAA vs rhGAA alone): No differences | mature RBCs [5, 13]: no differences | proerythroblasts, basophilic, polychromatic and orthochromatic erythroblasts and reticulocytes [5, 13]: significant enrichment | immature, nucleated RBCs (Ter-119+CD71+) [5, 14]: significant expansion | total erythroid cells (Ter-119+) [5, 14]: large and significant enrichment | immature, nucleated RBCs (Ter-119+CD71+) [5, 15]: smaller but significant enrichment | total erythroid cells (Ter-119+) [5, 15]: smaller but significant enrichment | erythroid response ([5]; transient low-dose methotrexate alone (with FB)): mimicked that of the group treated with transient low-dose methotrexate together with rhGAA | basophilic erythroblasts, orthochromatic erythroblasts, reticulocytes and mature red blood cells [6, 11]: small but significant reduction | immature, nucleated RBCs [6, 12]: significant depletion | total RBCs [6, 12]: significant depletion | immature, nucleated RBCs [6, 16]: nearly absent | immature, nucleated RBCs [6, 13]: no changes | mature RBCs [6, 13]: significant reduction | total RBCs [6, 14]: significantly reduced | immature, nucleated RBCs ([6]; day 7, with rhGAA vs rhGAA alone, Ter-119/CD71 gating): significantly enriched | immature, nucleated RBCs [6, 15]: significantly enriched | total RBCs [6, 15]: significantly enriched | immature, nucleated RBCs ([6]; day 14, with rhGAA vs rhGAA alone): small but significant enrichment | enrichment of immature, nucleated RBCs ([6]; day 28, with rhGAA vs rhGAA alone): absent | total RBCs ([6]; methotrexate alone vs vehicle control): no observed differences | Hemoglobin content [7]: significantly reduced | Total RBC numbers (CBC) [7]: significantly reduced | frequency and numbers of mature reticulocytes [7]: no observed differences | frequency of the immature reticulocyte fraction (IRF) [7]: significantly enriched | hematocrit [7]: significantly reduced | spleen cellularity by flow cytometry [8]: significantly greater | spleen weight [8]: significantly enlarged | rhGAA titers and AUC, difference between dosed control groups [9]: no differences | all stages of early erythroid cells [10, 17]: significant depletion | mature RBCs [10, 17]: no statistically significant differences | immature, nucleated RBCs [10, 16]: significantly reduced | total RBCs [10, 16]: no Differences | all erythroid cell stages, including early and mature RBCs ([10]; day 5, CD44/FSC gating, with rhGAA vs rhGAA alone): Depletion | immature, nucleated RBCs [10, 18]: significantly reduced | total RBCs [10, 18]: significantly reduced | mature RBCs [10, 13]: significantly reduced | proerythroblasts and polychromatic erythroblasts [10, 13]: small but significant enrichment | immature, nucleated RBCs [10, 19]: no differences | total RBCs [10, 19]: no differences | mature RBCs [10, 20]: no differences | proerythroblasts and polychromatic erythroblasts [10, 20]: small but significant enrichment

rhGAA: recombinant human acid-α-glucosidase, enzyme replacement therapy used to treat Pompe disease
erythroid ankyrin signal in 10 μM spleen sections [2]: evenly distributed across the spleen | glycophorin C signal in 10 μM spleen sections [2]: evenly distributed across the spleen
